Laboratory results from PubChem BioAssay (NCI).
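Test compounds were applied to cells in 96-well plates for 48 hours at 5 doses. Definition used: TGI = concentration required for complete inhibition of growth.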

Columns and labels:
Test in all cases: inhibition of tumour cell growth, NCI panel, 48 h
SNB-78 CNS = test system: SNB-78 CNS
M19-MEL melanoma = test system: M19-MEL melanoma
DLD-1 colon = test system: DLD-1 colon
KM20L2 colon = test system: KM20L2 colon
LXFL 529 NSCLC = test system: LXFL 529 NSCLC
HOP-18 NSCLC = test system: HOP-18 NSCLC
XF 498 CNS = test system: XF 498 CNS
DMS 114 small cell lung = test system: DMS 114 small cell lung
RXF-631 renal = test system: RXF-631 renal

SMILES | TGI (SNB-78 CNS) | TGI (M19-MEL melanoma) | TGI (DLD-1 colon) | TGI (KM20L2 colon) | TGI (LXFL 529 NSCLC) | TGI (HOP-18 NSCLC) | TGI (XF 498 CNS) | TGI (DMS 114 small cell lung) | TGI (RXF-631 renal)
OC1[C@H]([C@H]2CCCC[C@@H]2O)CCC[C@@H]1[C@@H]1CCCC[C@H]1O (some centres not stated) | > 100 µM | > 100 µM | > 100 µM | > 100 µM | > 100 µM | > 100 µM | > 100 µM | > 100 µM | –
ON/N=C/c1cc2c(cc1Br)OCO2 | – | > 386 µM | > 386 µM | > 386 µM | > 386 µM | > 386 µM | – | > 386 µM | > 386 µM
CCNC(C)Cc1ccccc1 (configuration not stated) | > 100 µM | – | > 100 µM | > 100 µM | > 100 µM | > 100 µM | – | > 100 µM | –
CC(=O)OC12/C(=N/O)CCCCCC1c1ccccc12 (configuration not stated) | > 100 µM | > 100 µM | – | > 100 µM | > 100 µM | > 100 µM | > 100 µM | > 100 µM | –
CCC(C)n1c(C)nc2c1C(=O)c1ccccc1C2=O (configuration not stated) | > 100 µM | 37.5 µM | > 100 µM | > 100 µM | > 100 µM | – | > 100 µM | – | –
CCc1ccc(N=Cc2cc(OC)c(OC)c(OC)c2)cc1 | > 100 µM | > 100 µM | > 100 µM | > 100 µM | > 100 µM | > 100 µM | > 100 µM | 76.1 µM | –
CC1(C)CCC[C@@]2(C)C1CCC1(C)C(CCc3ccoc3)/C(=C/OS(=O)(=O)O)CCC12 (some centres not stated) (tested in a mixture with another compound) | > 100 µM | > 100 µM | > 100 µM | > 100 µM | > 100 µM | > 100 µM | > 100 µM | > 100 µM | > 100 µM
O=C(/C=C/c1ccc(OCCCOc2ccc(/C=C/C(=O)c3ccccc3)cc2)cc1)c1ccccc1 | – | > 100 µM | > 100 µM | > 100 µM | > 100 µM | – | – | > 100 µM | > 100 µM
CN(C)CCOc1cccc2c1C(=O)c1ccccc1C2=O | 38.2 µM | 17.9 µM | 34.5 µM | 46.8 µM | 43.6 µM | 46.9 µM | 33 µM | 22.6 µM | –
Cc1ccccc1C(=O)c1c(O)c2c(c(O)c1Br)CCCC2 | 47.5 µM | 29.4 µM | 58.9 µM | 41.4 µM | 26.9 µM | 25.2 µM | 36.6 µM | 27.5 µM | –
Cc1ccc(S(=O)(=O)c2c(N)c3nc4ccccc4n3c3nc4ccccc4nc23)cc1 | – | > 100 µM | > 100 µM | > 100 µM | > 100 µM | – | – | > 100 µM | > 100 µM
Cc1cc(N(CCC#N)CCC#N)ccc1/C=C1N=C(/C=C\c2ccccc2)OC\1=O | > 100 µM | > 100 µM | > 100 µM | > 100 µM | > 100 µM | > 100 µM | > 100 µM | > 100 µM | –
